Measured values: PMC4513954 (Journal of medicinal chemistry, 2015)
Read-outs that look alike come from different tables or passages of the source.

Columns and labels:
MRSA strain (S. aureus) = conditions: cited from earlier work
S. aureus = S. aureus in vitro; cited from earlier work
[1] = Toxicity against mammalian cells; type: cell-based
[2] = tested on: undecaprenyl diphosphate synthase (UPPS); conditions: read-out: UPPS IC50; cited from earlier work
Yersinia pestis = conditions: cited from earlier work
Bacillus anthracis = conditions: cited from earlier work
[3] = target: undecaprenyl diphosphate synthase (UPPS); assay: UPPS inhibition; type: biochemical; conditions: read-out: UPPS IC50; both UPPS enzymes, approximate
E. coli (K12) = assay: E. coli cell growth inhibition; conditions: Escherichia coli, read-out: E. coli EC50, cell growth inhibition, E. coli K12

## O=C(Nc1cccc(C2=NCCN2)c1)c1ccc(-c2ccc(C(=O)Nc3cccc(C4=NCCN4)c3)cc2)cc1 [Compound 1, N4,N4'-bis(3-(4,5-dihydro-1H-imidazol-2-yl)phenyl)-[1,1'-biphenyl]-4,4'-bicarboxamide]
MRSA strain (S. aureus); S. aureus mouse model of infection
  adverse side-effects: no adverse side-effects
MRSA strain (S. aureus); i.p. infection model with a MRSA strain
  mice survived: 20/20
S. aureus
  MIC: ~ 250 ng/mL
[1]
  EC50: > 100 µM
[2]
  IC50: ~100 nM

## c1cc2cc(-c3ccc(-c4cc5ccc(C6=NCCN6)cc5[nH]4)cc3)[nH]c2cc1C1=NCCN1 [Compound 7, 1,4-bis(6-(4,5-dihydro-1H-imidazol-2-yl)-1H-indol-2-yl)benzene]
Yersinia pestis
  efficacy in mice model of infection: effective
Bacillus anthracis
  efficacy in mice model of infection: effective

## C(=C\c1cc2ccc(C3=NCCN3)cc2[nH]1)/c1cc2ccc(C3=NCCN3)cc2[nH]1.Cl [Compound 8]
Yersinia pestis
  efficacy in mice model of infection: effective
Bacillus anthracis
  efficacy in mice model of infection: effective

## O=C(Nc1cccc(C2=NCCCN2)c1)c1ccc(-c2ccc(C(=O)Nc3cccc(C4=NCCCN4)c3)cc2)cc1 [Compound 10, N4,N4'-bis(3-(1,4,5,6-tetrahydropyrimidin-2-yl)phenyl)biphenyl-4,4'-dicarboxamide]
[3]
  IC50: ~5 µM
E. coli (K12)
  EC50: < 1000 nM
